Patent publication US7030060B1, “Rest-breaking composition and use thereof” (Akzo Nobel N.V., priority 1999, dated 2006)

System: Golden Delicious apples
Assay: Usability of the organic nitrogen compound for rest-breaking
Format: in vivo
Conditions: South Africa
Description: It is to be understood that not all compounds may work on all deciduous fruit species in all orchards.

With choline borate the “Usability on Golden Delicious apples” value was “could not be used”.
